Measured values published in US9199918B2, “Small molecule inhibitors of AGBL2” (Georgetown University, priority 2011, dated 2015).
Values belong to the molecule of their own block, whether it stands above or below them.

Experiments:
AGBL2 [1] = molecular target: T1, AGBL2 (Homo sapiens, UniProt Q5U5Z8); test: Enzyme inhibition kinetic assay (fluorometric, release of tyrosine from hydroxycoumarin-conjugated tubulin CTT substrate); assay type: biochemical; details: 1 nM recombinant AGBL2; substrate 1 μM; 25° C., pH 7.5; apparent Ki fitted to Morrison equation for tight-binding inhibitors
T1 construct: His (N); made in house; protein recovered from inclusion bodies
T1 sequence (Q5U5Z8 1-902): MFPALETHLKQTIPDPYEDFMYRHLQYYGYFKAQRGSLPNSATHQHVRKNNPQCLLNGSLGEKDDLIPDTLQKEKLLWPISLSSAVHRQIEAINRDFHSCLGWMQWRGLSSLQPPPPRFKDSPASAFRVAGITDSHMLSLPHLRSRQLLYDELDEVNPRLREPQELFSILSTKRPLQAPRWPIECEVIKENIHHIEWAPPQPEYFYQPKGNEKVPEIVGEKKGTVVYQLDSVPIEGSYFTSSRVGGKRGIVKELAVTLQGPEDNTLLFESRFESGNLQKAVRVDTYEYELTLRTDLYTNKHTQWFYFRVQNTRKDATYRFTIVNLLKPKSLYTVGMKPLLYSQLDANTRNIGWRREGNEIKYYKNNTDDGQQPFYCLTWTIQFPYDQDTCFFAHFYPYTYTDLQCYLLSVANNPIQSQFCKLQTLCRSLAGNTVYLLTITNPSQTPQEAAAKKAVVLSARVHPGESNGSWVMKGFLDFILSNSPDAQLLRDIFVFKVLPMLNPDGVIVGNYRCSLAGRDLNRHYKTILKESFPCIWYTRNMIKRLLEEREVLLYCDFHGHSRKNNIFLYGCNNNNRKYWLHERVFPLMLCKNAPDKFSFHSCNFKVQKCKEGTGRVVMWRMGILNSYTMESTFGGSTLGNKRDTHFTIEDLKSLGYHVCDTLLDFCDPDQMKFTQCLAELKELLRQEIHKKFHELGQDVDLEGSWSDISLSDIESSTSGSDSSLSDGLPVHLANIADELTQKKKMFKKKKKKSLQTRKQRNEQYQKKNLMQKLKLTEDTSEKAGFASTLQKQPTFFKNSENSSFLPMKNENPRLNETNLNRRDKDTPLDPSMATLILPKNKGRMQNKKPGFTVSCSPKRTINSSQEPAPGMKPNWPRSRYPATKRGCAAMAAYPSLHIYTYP
From the text: Fluorescence Resonance Energy Transfer (FRET) principle can be applied to generate real-time enzymatic activity data. The tyrosinated C-terminal tail of tubulin has a tyrosine at the C-terminal. Tyrosines absorb at 270 nm and emit in the 280 to 350 nm range with a λMax=303 nm. Adding a hydroxycoumarin that absorbs in the range of 300 to 350 nm to the N-terminal of the CTT of tubulin (see FIG. 5) allows the quenching of the tyrosine emission that can be monitored at 303 nm. Emissions at 303 nm can be detected after the cleavage of the tyrosine residue since the latter will follow a Brownian motion and become physical situated far from the quencher (Hydroxycoumarin). Assays can be performed at 25° C. in 10 mM CaCl2, 0.2 M NaCl, and 0.05% Brij-35 in 50 mM HEPES, pH 7.5, over a substrate concentration range of […] and an enzyme concentration range of 0.1-50 nM. An exemplary assay was performed by incubating 186 μL of buffer solution, 4 μL of substrate solution, and then adding 10 μL of AGBL2 solution. The mixture was then incubated for 15 to 120 minutes at 25° C.
Kinetic assays of the inhibition of AGBL2 were carried out using the substrate described in Example 4 to measure inhibition constants. Enzymatic assays were performed at 25° C. in 50 mM HEPES buffer at pH 7.5 in the presence of 10 mM CaCl2, 0.2 M NaCl, and 0.01% or 0.05% Brij-35 with substrate concentrations of 1 μM. The release of tyrosine was monitored by measuring fluorescence (excitation and emission wavelengths of 270 nm and 303 nm, respectively). The compounds tested as inhibitors included compound Sd-1, compound Sd-2, compound Sd-3, and compound Sd-4. All stock solutions of inhibitors were in methanol. For inhibition assays, 10 μL of inhibitor stock solution, 176 μL of assay buffer, and 10 μL of enzyme stock solution were mixed and incubated for 30 to 60 minutes prior to initiation of the assay, which was accomplished by adding and mixing 4 μL of substrate stock solution. Enzyme concentrations ranged from 0.2 to 7 nM during the assay. Apparent inhibition constant (Ki^app) values were calculated by fitting the kinetics data to the Morrison equation for tight-binding inhibitors, where vi and vo are the initial rates with and without inhibitor, respectively, and [E]o and [I]o are the initial (total) enzyme and inhibitor concentrations, respectively. The Ki values of the four tested compounds and of recombinant RARRES1, all including 1 nM of recombinant AGBL2) are shown in Table 1.

AGBL2 [2] = molecular target: T1, AGBL2; test: High throughput enzyme kinetic (FRET) assay, saturation curves in the presence of inhibitor; assay type: biochemical; details: AGBL2 1 nM; Sd-4 at 1 nM, 5 nM and 10 nM; substrate 0 to 3 μM
From the text: Fluorescence Resonance Energy Transfer (FRET) principle can be applied to generate real-time enzymatic activity data. The tyrosinated C-terminal tail of tubulin has a tyrosine at the C-terminal. Tyrosines absorb at 270 nm and emit in the 280 to 350 nm range with a λMax=303 nm. Adding a hydroxycoumarin that absorbs in the range of 300 to 350 nm to the N-terminal of the CTT of tubulin (see FIG. 5) allows the quenching of the tyrosine emission that can be monitored at 303 nm. Emissions at 303 nm can be detected after the cleavage of the tyrosine residue since the latter will follow a Brownian motion and become physical situated far from the quencher (Hydroxycoumarin). […]
The reaction rate can be analyzed using different substrate concentrations and the saturation curve can be drawn. The maximum reaction rate (Vmax) and the substrate concentration at half the Vmax referred to as the Michaelis-Menten constant (KM) can be determined from the saturation curve. Inhibitors can also be analyzed and a saturation curve in the presence of inhibitor can be drawn. The reaction rate was analyzed using substrate concentrations over a range of 0 to 3 μM. […] The dissociation constant of the inhibitor (Ki) can be calculated using the following equation: Ki=[Inhibitor]/((KM,obs/KM)−1.0).

Molecule: Cc1cc(C(F)(F)F)cnc1CC(=O)O [Sd-2]
Ki (AGBL2 [1]): 87 nM

Molecule: Cc1cc(F)cnc1CC(=O)O [Sd-1]
Ki (AGBL2 [1]): 173 nM

B1: RARRES1: recombinant N-His RARRES1 protein (MW ~31 kDa) obtained from inclusion bodies (protein, UniProt P49788 1-294, looked up)
Retinoic acid receptor …: MQPRRQRLPAPWSGPRGPRPTAPLLALLLLLAPVAAPAGSGDPDDPGQPQDAGVPRRLLQQAARAALHFFNFRSGSPSALRVLAEVQEGRAWINPKEGCKVHVVFSTERYNPESLLQEGEGRLGKCSARVFFKNQKPRPTINVTCTRLIEKKKRQQEDYLLYKQMKQLKNPLEIVSIPDNHGHIDPSLRLIWDLAFLGSSYVMWEMTTQVSHYYLAQLTSVRQWKTNDDTIDFDYTVLLHELSTQEIIPCRIHLVWYPGKPLKVKYHCQELQTPEEASGTEEGSAVVPTELSNF
modifications: N-terminal His tag
notes: recombinant N-His RARRES1 protein (MW ~31 kDa) obtained from inclusion bodies
Ki (AGBL2 [1]): 27 nM

Now from value to molecule:

inhibition of AGBL2 activity at varying substrate concentrations (FIG. 6) (AGBL2 [2]): inhibition of AGBL2 activity | Ki (AGBL2 [1]): 4.89 nM
Molecule: O=C(O)Cc1cccc(C(=O)Nc2ccc3c(c2)OCO3)c1 [Sd-4]

Ki (AGBL2 [1]): 428 nM
Molecule: CC(C)c1ccc(Sc2ccc(F)cc2CC(=O)O)cc1 [Sd-3]
